Measurements published in patent US8080264B2, “Natural composition for curing hepatitis-B, methods for making the same and pharmaceutical formulations thereof” (Himalaya Global Holdings Ltd., priority 2004, dated 2011).

System: HepG2 cells
Assay: Hepatoprotective effects in vitro against TBH oxidative damage
Settings: MTT, TBH challenge

CC(C)(C)OO [TBH, Tertiary Butyl Hydro peroxide]
Survival (%): 52.53%
